Source: ChEMBL document CHEMBL1201862, “PubChem BioAssay data set” (2004)
The source made the active and inactive calls.

Tests used:
[1] = biological target: T1, Dual specificity protein phosphatase 3 (Homo sapiens, UniProt P51452); test: SAR VHR1 absorbance Assay for In Vitro dose response studies. [Related pubchem assays (depositor defined):AID1654, AID1661, AID1878, AID1992, AID2004]
[2] = biological target: T1, Dual specificity protein phosphatase 3; test: SAR VHR1 Fluorescent Assay for In Vitro dose response studies. [Related pubchem assays (depositor defined):AID1654, AID1661, AID1878, AID1992, AID2004, AID2070, AID2085]; assay type: functional
[3] = biological target: T2, Dual specificity protein phosphatase 6 (Rattus norvegicus, UniProt Q64346); assay type: functional;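 further: confirmatory in vitro dose-response testing of MKP-3 inhibition; recombinant His-tagged MKP-3 made in E. coli BL21 with OMFP substrate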
T2 sequence (Q64346 whole entry): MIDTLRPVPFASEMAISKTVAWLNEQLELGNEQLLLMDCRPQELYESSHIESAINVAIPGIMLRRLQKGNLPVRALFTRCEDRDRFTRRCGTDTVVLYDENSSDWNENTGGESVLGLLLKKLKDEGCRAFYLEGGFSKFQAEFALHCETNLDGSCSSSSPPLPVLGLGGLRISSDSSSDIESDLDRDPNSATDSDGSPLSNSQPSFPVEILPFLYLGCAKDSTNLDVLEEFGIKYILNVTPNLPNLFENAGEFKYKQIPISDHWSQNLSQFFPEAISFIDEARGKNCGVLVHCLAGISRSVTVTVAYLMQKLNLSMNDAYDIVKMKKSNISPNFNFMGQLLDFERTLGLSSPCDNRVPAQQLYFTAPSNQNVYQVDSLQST

[4] = biological target: T3, Tyrosine-protein phosphatase non-receptor type 7 (Homo sapiens, UniProt P35236); test: redox-dependent HePTP inhibition, mechanism study, biochemical, fluorescence (AID 2068); assay type: functional
T3 sequence (P35236 whole entry): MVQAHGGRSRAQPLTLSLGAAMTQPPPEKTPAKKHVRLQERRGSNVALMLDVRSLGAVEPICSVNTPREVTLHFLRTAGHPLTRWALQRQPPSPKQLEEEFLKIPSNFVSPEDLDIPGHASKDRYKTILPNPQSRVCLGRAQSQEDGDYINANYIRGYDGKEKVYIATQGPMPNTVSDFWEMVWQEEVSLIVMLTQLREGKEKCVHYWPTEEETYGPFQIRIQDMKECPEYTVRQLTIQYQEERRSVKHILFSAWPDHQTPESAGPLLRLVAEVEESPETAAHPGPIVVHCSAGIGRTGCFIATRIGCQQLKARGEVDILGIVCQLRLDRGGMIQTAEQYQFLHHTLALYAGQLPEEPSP

[5] = biological target: T4, Sphingosine 1-phosphate receptor 4 (Homo sapiens, UniProt O95977); test: S1P4 receptor agonists, human, late-stage follow-up, cell-based, fluorescence, synthesized compounds (AID 463107); assay type: functional
T4 sequence (O95977 whole entry): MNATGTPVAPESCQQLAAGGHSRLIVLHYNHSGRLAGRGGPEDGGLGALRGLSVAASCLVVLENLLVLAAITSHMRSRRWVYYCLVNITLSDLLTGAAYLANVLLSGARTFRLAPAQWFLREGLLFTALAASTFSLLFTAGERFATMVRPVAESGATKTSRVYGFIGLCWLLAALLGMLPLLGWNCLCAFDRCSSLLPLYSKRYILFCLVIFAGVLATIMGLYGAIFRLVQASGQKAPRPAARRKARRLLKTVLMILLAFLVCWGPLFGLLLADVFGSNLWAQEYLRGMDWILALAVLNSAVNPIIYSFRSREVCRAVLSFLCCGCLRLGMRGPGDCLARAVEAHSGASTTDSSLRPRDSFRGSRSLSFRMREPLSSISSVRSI

[6] = biological target: T5, Short transient receptor potential channel 4 (Mus musculus, UniProt Q9QUQ5); test: TRPC4 positive allosteric modulators, dose response, cell-based, HEK293 TRPC4/mu-opioid, Fluo-4 calcium, EC20 DAMGO (AID 434941); assay type: functional
T5 sequence (Q9QUQ5 whole entry): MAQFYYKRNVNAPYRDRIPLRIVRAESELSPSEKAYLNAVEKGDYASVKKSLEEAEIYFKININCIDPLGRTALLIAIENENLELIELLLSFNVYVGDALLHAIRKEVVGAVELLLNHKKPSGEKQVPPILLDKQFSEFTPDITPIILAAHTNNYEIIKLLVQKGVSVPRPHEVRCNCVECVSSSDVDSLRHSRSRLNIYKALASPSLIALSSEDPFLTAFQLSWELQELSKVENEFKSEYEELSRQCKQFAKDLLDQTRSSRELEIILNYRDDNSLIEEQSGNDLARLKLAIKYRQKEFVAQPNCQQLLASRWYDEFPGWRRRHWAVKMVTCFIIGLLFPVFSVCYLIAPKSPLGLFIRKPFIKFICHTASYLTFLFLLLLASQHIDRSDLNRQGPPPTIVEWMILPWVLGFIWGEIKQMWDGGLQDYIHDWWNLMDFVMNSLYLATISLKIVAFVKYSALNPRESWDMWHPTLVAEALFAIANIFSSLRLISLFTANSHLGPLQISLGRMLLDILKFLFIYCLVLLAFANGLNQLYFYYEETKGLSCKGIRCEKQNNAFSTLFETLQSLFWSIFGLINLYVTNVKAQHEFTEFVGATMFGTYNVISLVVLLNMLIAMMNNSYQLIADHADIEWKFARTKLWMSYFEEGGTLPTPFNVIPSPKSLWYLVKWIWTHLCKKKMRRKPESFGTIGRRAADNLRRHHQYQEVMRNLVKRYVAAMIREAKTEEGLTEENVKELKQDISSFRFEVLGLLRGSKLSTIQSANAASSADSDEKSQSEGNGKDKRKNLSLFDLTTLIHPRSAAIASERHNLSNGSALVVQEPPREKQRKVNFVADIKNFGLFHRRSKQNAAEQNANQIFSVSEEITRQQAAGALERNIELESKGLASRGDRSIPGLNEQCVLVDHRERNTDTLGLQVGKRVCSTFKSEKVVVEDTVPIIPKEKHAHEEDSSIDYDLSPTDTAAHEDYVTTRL

CAAX prenyl protease 2 [7] = biological target: CAAX prenyl protease 2 (Saccharomyces cerevisiae S288c, UniProt Q03530); assay type: biochemical
CAAX prenyl protease 2 [8] = biological target: CAAX prenyl protease 2 (Homo sapiens, UniProt Q9Y256); test: human Rce1 protease inhibitors, dose response, biochemical, yeast membranes, quenched-peptide fluorescence, cherry-pick (AID 588849)
Trypsin = Trypsin (Sus scrofa, UniProt P00761); test: porcine trypsin inhibitors, dose response, selectivity assay for Rce1 protease inhibitor project, biochemical, quenched peptide fluorescence, cherry-pick (AID 488789)
Sequence of Trypsin (P00761 whole entry): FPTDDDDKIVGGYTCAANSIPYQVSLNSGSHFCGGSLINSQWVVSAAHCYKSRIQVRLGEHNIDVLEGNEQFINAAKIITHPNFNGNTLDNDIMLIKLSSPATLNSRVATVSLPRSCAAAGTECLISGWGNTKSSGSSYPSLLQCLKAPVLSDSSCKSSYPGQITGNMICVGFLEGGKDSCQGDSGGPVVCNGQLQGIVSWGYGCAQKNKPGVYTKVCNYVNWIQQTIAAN

T1 sequence (P51452 whole entry): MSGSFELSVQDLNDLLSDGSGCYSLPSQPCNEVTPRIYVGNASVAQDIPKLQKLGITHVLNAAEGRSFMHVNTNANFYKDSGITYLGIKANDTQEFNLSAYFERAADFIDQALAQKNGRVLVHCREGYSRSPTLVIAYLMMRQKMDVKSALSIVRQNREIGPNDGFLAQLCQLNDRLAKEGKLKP
Sequence of CAAX prenyl protease 2 (Homo sapiens, UniProt Q9Y256) (Q9Y256 whole entry): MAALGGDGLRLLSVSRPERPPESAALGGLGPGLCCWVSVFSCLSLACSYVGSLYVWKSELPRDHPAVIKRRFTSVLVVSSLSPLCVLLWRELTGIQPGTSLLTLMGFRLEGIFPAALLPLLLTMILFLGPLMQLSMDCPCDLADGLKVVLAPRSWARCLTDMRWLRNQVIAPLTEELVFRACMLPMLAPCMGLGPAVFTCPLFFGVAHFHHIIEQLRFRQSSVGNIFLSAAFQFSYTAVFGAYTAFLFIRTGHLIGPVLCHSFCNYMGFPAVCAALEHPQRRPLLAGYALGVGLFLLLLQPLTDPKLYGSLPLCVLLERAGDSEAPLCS
Sequence of CAAX prenyl protease 2 (Saccharomyces cerevisiae S288c, UniProt Q03530) (Q03530 whole entry): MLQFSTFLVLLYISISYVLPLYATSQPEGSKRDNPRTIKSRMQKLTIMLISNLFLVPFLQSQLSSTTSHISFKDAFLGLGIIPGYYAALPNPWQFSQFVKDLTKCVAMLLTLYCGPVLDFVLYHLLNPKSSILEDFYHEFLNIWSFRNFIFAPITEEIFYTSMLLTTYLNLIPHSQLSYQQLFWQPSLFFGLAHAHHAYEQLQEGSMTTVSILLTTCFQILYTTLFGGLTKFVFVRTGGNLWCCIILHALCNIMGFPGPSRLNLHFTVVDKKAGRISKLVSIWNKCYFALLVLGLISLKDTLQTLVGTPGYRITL

With S=C(c1cn(CCOc2ccccc2)c2ccccc12)N1CCCCC1 as the compound, how does the IC50 [1] read?
The IC50 was > 100 µM (inactive).

What about the IC50 [2] of the same compound?
The IC50 was > 100 µM (inactive).

And the IC50 [3]?
The IC50 was > 100 µM (inactive).

And the IC50 [4]?
Its IC50 is 31.7 µM (active).

With Cc1ccc(OCCOc2ccccc2)c([N+](=O)[O-])n1 as the compound, how does the EC50 [5] read?
Its EC50 is > 50 µM (inactive).

For CC1Cc2ccccc2N1C(=O)CSc1nc2c(c(=O)n(C)c(=O)n2C)n1Cc1ccc(F)cc1 (centres undefined), which EC50 [6] is on record?
The EC50 was 1.33 µM (active).

With CC1(C(=O)N(CC(=O)NC2CCCC2)Cc2ccccc2)CC(=O)N=C2C=CC=CN21 (centres undefined) as the compound, how does the AC50 (CAAX prenyl protease 2 [7]) read?
The AC50 was 4.24 µM (active).

What about the AC50 (CAAX prenyl protease 2 [8]) of the same compound?
Its AC50 is 2.75 µM (active).

What about the AC50 (Trypsin) of the same compound?
Its AC50 is 4.57 µM (active).
